Where two headings read alike, the source gives them in different places.
Tested on: HIV (LAV 1)
Assay: microbe, parasite or virus in culture
Conditions: for Viable cell count / Viral antigen-positive cell percentage: 4-day addition; for viability at 1 µg/mL / viability at 2.5 µg/mL / viability at 5 µg/mL / viability at 10 µg/mL: Human immunodeficiency virus 1, CCRF-CEM
Outline: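 CEM cells were infected with HIV LAV 1 at MOI 0.05 and cultured with test substance at 10, 5, 2.5 or 1 mcg/ml, with medium exchanged periodically up to 30 days. Viable cell count and percentage were measured by trypan blue, and antigen-positive cells by immunofluorescence with anti-HIV antiserum, at 4–30 days. Values are means of two wells.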

Structure (SMILES): CCn1cc(C(=O)O)c(=O)c2cc(F)c(N3CCNCC3)cc21 [NFLX, 1-ethyl-6-fluoro-1,4-dihydro-4-oxo-7-(1-piperazinyl)-3-quinolinecarboxylic acid]
- Viable cell count (1 mcg/ml, after 4 days): 230 × 10⁴ cells/ml
- Viral antigen-positive cell percentage (1 mcg/ml, after 4 days): 88%
- Viable cell count (1 mcg/ml, after 7 days): 52 × 10⁴ cells/ml
- Viral antigen-positive cell percentage (1 mcg/ml, after 7 days): 75%
- Viable cell count (1 mcg/ml, after 10 days): 26 × 10⁴ cells/ml
- Viable cell count (1 mcg/ml, after 20 days): 0 × 10⁴ cells/ml
- Viable cell count (1 mcg/ml, after 30 days): 0 × 10⁴ cells/ml
- Viable cell count (2.5 mcg/ml, after 4 days): 240 × 10⁴ cells/ml
- Viral antigen-positive cell percentage (2.5 mcg/ml, after 4 days): 93%
- Viable cell count (2.5 mcg/ml, after 7 days): 59 × 10⁴ cells/ml
- Viral antigen-positive cell percentage (2.5 mcg/ml, after 7 days): 55%
- Viable cell count (2.5 mcg/ml, after 10 days): 40 × 10⁴ cells/ml
- Viable cell count (2.5 mcg/ml, after 20 days): 2 × 10⁴ cells/ml
- Viable cell count (2.5 mcg/ml, after 30 days): 70 × 10⁴ cells/ml
- Viral antigen-positive cell percentage (2.5 mcg/ml, after 30 days): ≦1%
- Viable cell count (5 mcg/ml, after 4 days): 230 × 10⁴ cells/ml
- Viral antigen-positive cell percentage (5 mcg/ml, after 4 days): 83%
- Viable cell count (5 mcg/ml, after 7 days): 84 × 10⁴ cells/ml
- Viral antigen-positive cell percentage (5 mcg/ml, after 7 days): 65%
- Viable cell count (5 mcg/ml, after 10 days): 86 × 10⁴ cells/ml
- Viable cell count (5 mcg/ml, after 20 days): 28 × 10⁴ cells/ml
- Viable cell count (5 mcg/ml, after 30 days): 330 × 10⁴ cells/ml
- Viral antigen-positive cell percentage (5 mcg/ml, after 30 days): ≦1%
- Viable cell count (10 mcg/ml, after 4 days): 180 × 10⁴ cells/ml
- Viral antigen-positive cell percentage (10 mcg/ml, after 4 days): 92%
- Viable cell count (10 mcg/ml, after 7 days): 60 × 10⁴ cells/ml
- Viral antigen-positive cell percentage (10 mcg/ml, after 7 days): 63%
- Viable cell count (10 mcg/ml, after 10 days): 250 × 10⁴ cells/ml
- Viral antigen-positive cell percentage (10 mcg/ml, after 10 days): 50%
- Viable cell count (10 mcg/ml, after 20 days): 370 × 10⁴ cells/ml
- Viral antigen-positive cell percentage (10 mcg/ml, after 20 days): 4%
- Viable cell count (10 mcg/ml, after 30 days): 400 × 10⁴ cells/ml
- Viral antigen-positive cell percentage (10 mcg/ml, after 30 days): ≦1%
- viability at 1 µg/mL (96 h, read-out: Viable cell percentage, 1 mcg/ml, 4-day addition, after 4 days): 94%
- viability at 2.5 µg/mL (96 h, read-out: Viable cell percentage, 2.5 mcg/ml, 4-day addition, after 4 days): 94%
- viability at 5 µg/mL (96 h, read-out: Viable cell percentage, 5 mcg/ml, 4-day addition, after 4 days): 94%
- viability at 10 µg/mL (96 h, read-out: Viable cell percentage, 10 mcg/ml, 4-day addition, after 4 days): 92%
- viability at 1 µg/mL (read-out: Viable cell percentage, 1 mcg/ml, 4-day addition, after 7 days): 59%
- viability at 1 µg/mL (read-out: Viable cell percentage, 1 mcg/ml, 4-day addition, after 10 days): 30%
- viability at 1 µg/mL (read-out: Viable cell percentage, 1 mcg/ml, 4-day addition, after 20 days): 0%
- viability at 1 µg/mL (read-out: Viable cell percentage, 1 mcg/ml, 4-day addition, after 30 days): 0%
- viability at 2.5 µg/mL (read-out: Viable cell percentage, 2.5 mcg/ml, 4-day addition, after 7 days): 67%
- viability at 2.5 µg/mL (read-out: Viable cell percentage, 2.5 mcg/ml, 4-day addition, after 10 days): 47%
- viability at 2.5 µg/mL (read-out: Viable cell percentage, 2.5 mcg/ml, 4-day addition, after 20 days): 33%
- viability at 2.5 µg/mL (read-out: Viable cell percentage, 2.5 mcg/ml, 4-day addition, after 30 days): 96%
- viability at 5 µg/mL (read-out: Viable cell percentage, 5 mcg/ml, 4-day addition, after 7 days): 67%
- viability at 5 µg/mL (read-out: Viable cell percentage, 5 mcg/ml, 4-day addition, after 10 days): 61%
- viability at 5 µg/mL (read-out: Viable cell percentage, 5 mcg/ml, 4-day addition, after 20 days): 81%
- viability at 5 µg/mL (read-out: Viable cell percentage, 5 mcg/ml, 4-day addition, after 30 days): 95%
- viability at 10 µg/mL (read-out: Viable cell percentage, 10 mcg/ml, 4-day addition, after 7 days): 71%
- viability at 10 µg/mL (read-out: Viable cell percentage, 10 mcg/ml, 4-day addition, after 10 days): 91%
- viability at 10 µg/mL (read-out: Viable cell percentage, 10 mcg/ml, 4-day addition, after 20 days): 97%
- viability at 10 µg/mL (read-out: Viable cell percentage, 10 mcg/ml, 4-day addition, after 30 days): 94%

From patent publication EP0394553A2, “Use of fluorine containing pyridone carboxylic acid derivatives for preparing a medicament for the treatment of HIV infections” (DAIICHI PHARMACEUTICAL CO., LTD., priority 1989, dated 1990)
